Laboratory results as given in US11472803B2, “7-substituted 1-aryl-naphthyridine-3-carboxylic acid amides and use thereof” (Bayer Aktiengesellschaft, priority 2016, dated 2022).

Target: T1, human M2 receptor (Homo sapiens, UniProt P08172)
T1 construct: expressed in transfected cells; host or cells: CHO-DUKX (CHO-DUKX-M2-GIRK)
T1 sequence (P08172 1-466): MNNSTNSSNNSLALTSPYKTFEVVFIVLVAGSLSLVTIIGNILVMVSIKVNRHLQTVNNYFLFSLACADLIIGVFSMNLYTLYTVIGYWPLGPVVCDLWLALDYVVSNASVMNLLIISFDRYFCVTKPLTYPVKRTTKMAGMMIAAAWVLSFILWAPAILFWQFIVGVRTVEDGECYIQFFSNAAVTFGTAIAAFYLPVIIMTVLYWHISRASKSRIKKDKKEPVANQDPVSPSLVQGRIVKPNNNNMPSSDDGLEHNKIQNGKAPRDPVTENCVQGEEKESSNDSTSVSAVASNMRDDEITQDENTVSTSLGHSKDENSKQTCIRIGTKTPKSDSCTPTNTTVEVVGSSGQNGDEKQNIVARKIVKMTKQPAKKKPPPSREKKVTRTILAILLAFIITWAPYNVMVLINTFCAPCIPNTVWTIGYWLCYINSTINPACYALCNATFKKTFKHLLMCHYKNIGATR
Assay: Functional M2-GIRK1/4 activation test: allosteric potency (EC50) and efficiency at EC20 acetylcholine
Type: cell-based
Settings: CHO-DUKX-M2-GIRK cells; for EC50: voltage-sensitive dye, acetylcholine at EC20, in some cases mean of two or more determinations; for Emax: boosting of the acetylcholine effect at EC20 acetylcholine concentration
Outline: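 CHO-DUKX cells stably expressing human M2 and GIRK1/4; membrane potential tracked with voltage-sensitive dye at room temperature. Compound added 50 s before acetylcholine at its EC20, then hyperpolarization read 60 s. EC50 (allosteric potency) and efficiency (boost of EC20 ACh effect) from 4-parameter Hill fit.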

| Structure (SMILES) | EC50 [nM] | Emax [%] |
| --- | --- | --- |
| CC(C)(NC(=O)c1cn(-c2c(F)cc(F)cc2F)c2nc(N3CCOCC3)c(F)cc2c1=O)C(F)(F)F [Example 149, 6-Fluoro-7-(morpholin-4-yl)-4-oxo-N-(1,1,1-trifluoro-2-methylpropan-2-yl)-1-(2,4,6-trifluorophenyl)-1,4-dihydro-1,8-naphthyridine-3-carboxamide] | 21 | 92 |
| CC(C)(NC(=O)c1cn(-c2c(F)cc(F)cc2F)c2nc(N3CCOCC3)c(F)cc2c1=O)C(F)F [Example 150, N-(1,1-Difluoro-2-methylpropan-2-yl)-6-fluoro-7-(morpholin-4-yl)-4-oxo-1-(2,4,6-trifluoro-phenyl)-1,4-dihydro-1,8-naphthyridine-3-carboxamide] | 24 | 93 |
| CC[C@H](NC(=O)c1cn(-c2c(F)cc(F)cc2F)c2nc(N3CCOCC3)c(F)cc2c1=O)C(F)(F)F [Example 151, 6-Fluoro-7-(morpholin-4-yl)-4-oxo-N-[(2S)-1,1,1-trifluorobutan-2-yl]-1-(2,4,6-trifluoro-phenyl)-1,4-dihydro-1,8-naphthyridine-3-carboxamide] | 24 | 100 |
| CC[C@H](NC(=O)c1cn(-c2ncc(F)cc2F)c2nc(N3CC[C@H](O)C3)c(F)cc2c1=O)C(F)(F)F [Example 152, 1-(3,5-Difluoropyridin-2-yl)-6-fluoro-7-[(3S)-3-hydroxypyrrolidin-1-yl]-4-oxo-N-[(2S)-1,1,1-trifluorobutan-2-yl]-1,4-dihydro-1,8-naphthyridine-3-carboxamide] | 53 | 100 |
| O=C(N[C@@H](C1CC1)C(F)(F)F)c1cn(-c2ncc(F)cc2F)c2nc(N3CC[C@H](O)C3)c(F)cc2c1=O [Example 153, N-[(1S)-1-Cyclopropyl-2,2,2-trifluoroethyl]-1-(3,5-difluoropyridin-2-yl)-6-fluoro-7-[(3S)-3-hydroxypyrrolidin-1-yl]-4-oxo-1,4-dihydro-1,8-naphthyridine-3-carboxamide] | 48 | 99 |
| CC(C)(NC(=O)c1cn(-c2ncc(F)cc2F)c2nc(N3CC[C@H](O)C3)c(F)cc2c1=O)C(F)(F)F [Example 154, 1-(3,5-Difluoropyridin-2-yl)-6-fluoro-7-[(3S)-3-hydroxypyrrolidin-1-yl]-4-oxo-N-(1,1,1-tri-fluoro-2-methylpropan-2-yl)-1,4-dihydro-1,8-naphthyridine-3-carboxamide] | 97 | 100 |
| CC[C@@H](NC(=O)c1cn(-c2c(F)cc(F)cc2F)c2nc(N3C[C@@H](O)[C@@H](O)C3)c(F)cc2c1=O)C(F)(F)F [Example 155, 7-[(3R,4S)-3,4-Dihydroxypyrrolidin-1-yl]-6-fluoro-4-oxo-N-[(2R)-1,1,1-trifluorobutan-2-yl]-1-(2,4,6-trifluorophenyl)-1,4-dihydro-1,8-naphthyridine-3-carboxamide] | 11 | 100 |
| CC[C@@H](NC(=O)c1cn(-c2c(F)cc(F)cc2F)c2nc(N3C[C@H](O)[C@@H](O)C3)c(F)cc2c1=O)C(F)(F)F [Example 156, 7-[(3S,4S)-3,4-Dihydroxypyrrolidin-1-yl]-6-fluoro-4-oxo-N-[(2R)-1,1,1-trifluorobutan-2-yl]-1-(2,4,6-trifluorophenyl)-1,4-dihydro-1,8-naphthyridine-3-carboxamide] | 11 | 100 |
| CC(NC(=O)c1cn(-c2c(F)cc(F)cc2F)c2nc(N3C[C@@H](O)[C@H](O)C3)c(Br)cc2c1=O)C(F)(F)C(F)(F)F (stereo partly drawn) [Example 158, 6-Bromo-7-[(3R,4R)-3,4-dihydroxypyrrolidin-1-yl]-4-oxo-N-[3,3,4,4,4-pentafluorobutan-2-yl]-1-(2,4,6-trifluorophenyl)-1,4-dihydro-1,8-naphthyridine-3-carboxamide] | 3.7 | 100 |
| C[C@H](NC(=O)c1cn(-c2c(F)cc(F)cc2F)c2nc(N3C[C@@H](O)[C@H](O)C3)c(F)cc2c1=O)c1ccccc1 [Example 167, 7-[(3R,4R)-3,4-Dihydroxypyrrolidin-1-yl]-6-fluoro-4-oxo-N-[(1S)-1-phenylethyl]-1-(2,4,6-tri-fluorophenyl)-1,4-dihydro-1,8-naphthyridine-3-carboxamide] | 7.4 | 95 |
| Cc1cc(F)cc(C)c1-n1cc(C(=O)N[C@@H](C2CC2)C(F)(F)F)c(=O)c2cc(F)c(N3C[C@@H](O)[C@H](O)C3)nc21 [Example 175, N-[(1S)-1-Cyclopropyl-2,2,2-trifluoroethyl]-7-[(3R,4R)-3,4-dihydroxypyrrolidin-1-yl]-6-fluoro-1-(4-fluoro-2,6-dimethylphenyl)-4-oxo-1,4-dihydro-1,8-naphthyridine-3-carboxamide] | 73 | 83 |
| CN1CCN(c2nc3c(cc2F)c(=O)c(C(=O)N[C@@H](C2CC2)C(F)(F)F)cn3-c2c(F)cc(F)cc2F)C(CO)C1 (stereo partly drawn) [Example 176, N-[(1S)-1-Cyclopropyl-2,2,2-trifluoroethyl]-6-fluoro-7-[2-(hydroxymethyl)-4-methylpiperazin-1-yl]-4-oxo-1-(2,4,6-trifluorophenyl)-1,4-dihydro-1,8-naphthyridine-3-carboxamide] | 110 | 91 |
| Cc1cc(F)cc(C)c1-n1cc(C(=O)N[C@H](C2CC2)C(F)(F)F)c(=O)c2cc(F)c(N3C[C@@H](O)CC3=O)nc21 [Example 177, N-[(1R)-1-Cyclopropyl-2,2,2-trifluoroethyl]-6-fluoro-1-(4-fluoro-2,6-dimethylphenyl)-7-[(4S)-4-hydroxy-2-oxopyrrolidin-1-yl]-4-oxo-1,4-dihydro-1,8-naphthyridine-3-carboxamide] | 530 | 77 |
| CC[C@H](NC(=O)c1cn(-c2c(F)cc(F)cc2F)c2nc(N3C[C@H](O)[C@@H](O)C3)c(F)cc2c1=O)C(F)(F)F [Example 178, 7-[(3S,4S)-3,4-Dihydroxypyrrolidin-1-yl]-6-fluoro-4-oxo-N-[(2S)-1,1,1-trifluorobutan-2-yl]-1-(2,4,6-trifluorophenyl)-1,4-dihydro-1,8-naphthyridine-3-carboxamide] | 17 | 99 |
| CN1CCN(c2nc3c(cc2F)c(=O)c(C(=O)N[C@@H](C2CC2)C(F)(F)F)cn3-c2c(F)cc(F)cc2F)CC1CO (stereo partly drawn) [Example 179, N-[(1S)-1-Cyclopropyl-2,2,2-trifluoroethyl]-6-fluoro-7-[3-(hydroxymethyl)-4-methylpiperazin-1-yl]-4-oxo-1-(2,4,6-trifluorophenyl)-1,4-dihydro-1,8-naphthyridine-3-carboxamide] | 27 | 100 |
| CN(C)c1nc2c(cc1F)c(=O)c(C(=O)NC(C(F)(F)F)C(F)(F)F)cn2-c1c(F)cc(F)cc1Cl [Example 180, 1-(2-Chloro-4,6-difluorophenyl)-7-(dimethylamino)-6-fluoro-N-(1,1,1,3,3,3-hexafluoropropan-2-yl)-4-oxo-1,4-dihydro-1,8-naphthyridine-3-carboxamide] | 8.5 | 86 |
| CC(NC(=O)c1cn(-c2c(F)cc(F)cc2F)c2nc(N3CCC(O)C(O)C3)c(F)cc2c1=O)C(F)(F)C(F)(F)F (stereo not shown) [Example 181, 7-(3,4-Dihydroxypiperidin-1-yl)-6-fluoro-4-oxo-N-(3,3,4,4,4-pentafluorobutan-2-yl)-1-(2,4,6-trifluorophenyl)-1,4-dihydro-1,8-naphthyridine-3-carboxamide] | 13 | 83 |
